Entries after “also recorded” stand apart in the source; their conditions may differ. Square brackets hold non-standard residues; d marks the D form. Peptide text beside a SMILES is read from it. * marks the point of attachment. Sta = CC(C)C[C@H](N)[C@@H](O)CC(=O)O; Isovaleryl = CC(C)CC(=O)*
Legend:
PF-1 = assay type: biochemical, Bacillus sp. KSM-PF1; conditions: for residual activity of PF-1 relative to control as 100: pH 7
PF-2 = assay type: biochemical, Bacillus sp. KSM-PF2; conditions: for residual activity of PF-2 relative to control as 100: pH 7
[1] = Meat tenderization test, 5-mm thick round (Example 3, FIG. 1); conditions: for tenderizing effect (in words) / time in which the tenderizing effect is exerted: 5-mm thick meat, 20° C., per 10 g: PF-1 100 U, papain 10 U or 1 U, elastase 250 U; for tenderizing effect (in words): PF-2 45 U; for time to overtenderizing effect: 5 mm or 15 mm
Procedure: The metalloprotease of the present invention preferably tenderizes round in such a manner that the shear force value of the round thus tenderized is from 20% to 70% (preferably from 25% to 65%, particularly from 30% to 50% of that of the untenderized round (round which has not been processed with the metalloprotease of the present invention) when the round has a thickness of 5 mm. The shear force value as defined herein is determined by subjecting the meat sample to cutting by a meat shear (Warner Bratzler Type 3000, available from Warner Bratzler Corp.). The meat sample is obtained by subjecting round to enzymatic processing at a temperature of 20° C., and then grilled-the round thus processed on both sides thereof at 200° C. (grilled on one side for 1 minute and one the other side for 45 seconds).
As the meat to be tested there was used a low grade round (100 g) imported from Australia. The meat was sliced to 5-mm thick pieces by a meat slicer. Prominent strings were removed. About 20 g of the sliced meat was then molded. The molded meat was uniformly sprinkled with the enzyme powder, covered with a wrap, and then allowed to stand at room temperature (20° C.) for a predetermined period of time. The meat thus processed was then grilled over a 200° C. hot plate for 1 minute on one side and for 45 seconds on the other side. The meat thus grilled was then cut into 3-cm wide strips. The strips were then measured for shear force value (SFV) by means of a meat shear (Warner Bratzler Type 3000, available from Warner Bratzler Corp.). As comparative enzymes, a papain powder (available from Amano Co., Ltd.) and an elastase powder (reagent available from Sigma Co., Ltd.) were subjected to the same meat tenderization test as mentioned above.

[2] = Meat tenderization test, 15-mm thick round (Example 4, FIG. 2); conditions: 15-mm thick meat, 20° C., per 10 g: PF-1 100 U, papain 10 U or 1 U, elastase 250 U; for tenderizing effect (in words): PF-2 45 U
Procedure: The same meat as used in Example 3 was sliced perpendicular to muscular fibers to 15-mm thick pieces by a meat slicer. A maximum homogeneous portion of the sliced meat was molded into an about 30 g rod. The molded meat was uniformly sprinkled with the enzyme powder, covered with a wrap, and then allowed to stand at room temperature (20° C.) for a predetermined period of time. The meat thus processed was then grilled over a 200° C. hot plate for 3 minutes on each side. The meat thus grilled was cut into 2-cm wide strips which were then measured for shear force value in the same manner as in Example 3. As comparative enzymes, the same papain powder (available from Amano Co., Ltd.) and elastase powder (reagent available from Sigma Co., Ltd.) as used in Example 3 were subjected to the same meat tenderization test as mentioned above.

[3] = Meat tenderization test of conventional proteases (background); conditions: for time to overtenderize the meat: 0.1 based on the weight of the meat
Excerpt: As a meat tenderizer there has been heretofore used a protease. One of the most frequently used meat tenderizers is papain derived from papaya. However, papain is disadvantageous in that it is hard to control in tenderization (i.e., control over the progress of tenderization to a proper level) and its use is restricted by the added amount thereof and the processing time. In fact, papain was subjected to meat tenderization test. As a result, even when used in an amount as extremely small as 0.1 based on the weight of the meat to be tested, this enzyme overtenderized the meat within 1 hour at room temperature and in a period of time as short as 24 hours at a temperature as low as 4° C. The meat thus overtenderized was too unsavory to be served. This is because proteases derived from plants have a low substrate specificity.
On the other hand, a method has been proposed which comprises the specific decomposition of a connective tissue in a meat with elastase, which has a high substrate specificity, to tenderize the meat (JP-A-4-197156 (The term "JP-A" as used herein means an "unexamined published Japanese patent application"), JP-A-5-276899). However, this approach is disadvantageous in that elastase is hard to produce and must be used in a relatively large amount and requires a prolonged processing time to exert desired effects as compared with the foregoing proteases. It has also been point out that elastase cannot tenderize a meat sufficiently even if the added amount thereof and the processing time are increased (JP-A-6-169729).

Molecule | inhibition of PF-1 activity (in words) (PF-1) | residual activity of PF-1 relative to control as 100 (PF-1) | inhibition of PF-2 activity (in words) (PF-2) | residual activity of PF-2 relative to control as 100 (PF-2) | further results
O[C@H](CS)[C@H](O)CS (racemic) [DTT, dithiothreitol] | not inhibited | 70% | not inhibited | 81% | –
[Ca+2].[Cl-].[Cl-] [CaCl2] | – | 104% | – | 76% | –
[Cl-].[Cl-].[Co+2] [CoCl2] | – | 103% | – | 78% | –
[Cl][Cu][Cl] [CuCl2] | – | 37% | – | 20% | –
O=C(O)CN(CCN(CC(=O)O)CC(=O)O)CC(=O)O [EDTA, ethylenediaminetetraacetic acid] | inhibited | 45% | inhibited | 30% | –
[Cl][Fe][Cl] [FeCl2] | – | – | – | 28% | –
[Cl][Fe]([Cl])[Cl] [FeCl3] | – | 98% | – | 9% | –
[Cl][Hg][Cl] [HgCl2] | – | 40% | – | 62% | –
[Cl-].[Cl-].[Mg+2] [MgCl2] | – | 107% | – | 74% | –
[Cl][Mn][Cl] [MnCl2] | – | 103% | – | 62% | –
O=C(O)CI [Monoiodoacetic acid, monoiodoacetic acid] | not inhibited | 105% | not inhibited | 100% | –
[Cl][Ni][Cl] [NiCl2] | – | 92% | – | 28% | –
O=S(=O)(F)Cc1ccccc1 [PNSF, phenylmethanesulfonylfluoride] | not inhibited | 124% | not inhibited | 80% | –
CC(C)CC(=O)N[C@H](C(=O)N[C@H](C(=O)N[C@@H](CC(C)C)[C@@H](O)CC(=O)N[C@@H](C)C(=O)N[C@@H](CC(C)C)[C@@H](O)CC(=O)O)C(C)C)C(C)C [Pepstatin, pepstatin] (Isovaleryl-VV[Sta]A[Sta]-OH) | not inhibited | 108% | not inhibited | 100% | –
[Cl-].[Cl-].[Zn+2] [ZnCl2] | – | 88% | – | 58% | –
elastase | – | – | – | – | tenderizing effect (in words) ([1]; listed as elastase powder): some tenderizing effect; also recorded: a proper tenderness cannot be obtained; time in which the tenderizing effect is exerted [1]: 24 h; tenderizing effect, summary of Examples 3 and 4 (in words) ([1]; meat thickness either 5 mm or 15 mm, up to 24 hours): cannot exert an effect of properly tenderizing the meat; tenderizing effect (in words) ([2]; listed as elastase powder): some tenderizing effect; also recorded: a proper tenderness cannot be obtained; time in which the tenderizing effect is exerted [2]: 24 h; tenderizing effect (in words) ([3]; reagent grade elastase): slightly tenderized; also recorded: the tenderness thus obtained was insufficient
leupeptine [Leupepsin] | not inhibited | 82% | not inhibited | 91% | –
papain (protein, UniProt P00784 134-345, looked up) Papain: IPEYVDWRQKGAVTPVKNQGSCGSCWAFSAVVTIEGIIKIRTGNLNEYSEQELLDCDRRSYGCNGGYPWSALQLVAQYGIHYRNTYPYEGVQRYCRSREKGPYAAKTDGVRQVQPYNEGALLYSIANQPVSVVLEAAGKDFQLYRGGIFVGPCGNKVDHAVAAVGYGPNYILIKNSWGTGWGENGYIRIKRGTGNSYGVCGLYTSSFYPVKN | – | – | – | – | tenderizing effect (in words) [1]: overtenderizing effect; time in which the tenderizing effect is exerted [1]: several; time to overtenderizing effect ([1]; used in a large amount): several minutes to scores of minutes; time to overtenderizing effect ([1]; used in a reduced amount): several hours; tenderizing effect (in words) [2]: overtenderizing effect; time in which the tenderizing effect is exerted [2]: several; time to overtenderize the meat ([3]; 4° C.): 24 h; time to overtenderize the meat ([3]; room temperature): ≤ 1 h

Reference: US5709901A (priority 1994, dated 1998)
